Measurements from PubChem BioAssay AID1963970 (Molecular Pharmacology Branch, DTP, NCI, 2024).
Values belong to the molecule of their own block, whether it stands above or below them.

Tested on: 931267-113-T-J1-PDC multicell spheroid viability
Assay: Anticancer human tumor 931267-113-T-J1-PDC patient-derived colon adenocarcinoma cell line growth inhibition [PI3K]
Conditions: for IC50: curve of first compound; for viability, T/C: stronger effect = lower value
In short: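 Stroma-containing spheroids: tumor line, pooled-donor HUVEC, hMSC. Treatments: targeted agents with PI3K inhibitors. Dosing: clinically relevant, half-log spacing, 10 microM ceiling without known Cmax. Read-out: cell viability.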

[1] = second compound 0.0316 µM, first compound 0.0316 µM
[2] = second compound 0.0316 µM, first compound 0.1 µM
[3] = second compound 0.0316 µM, first compound 0.316 µM
[4] = second compound 0.0316 µM, first compound 1 µM
[5] = second compound 0.0316 µM, first compound 3.16 µM
[6] = second compound 0.0316 µM, first compound 10 µM
[7] = second compound 0.1 µM, first compound 0.0316 µM
[8] = second compound 0.1 µM, first compound 0.1 µM
[9] = second compound 0.1 µM, first compound 0.316 µM
[10] = second compound 0.1 µM, first compound 1 µM
[11] = second compound 0.1 µM, first compound 3.16 µM
[12] = second compound 0.1 µM, first compound 10 µM
[13] = second compound 0.316 µM, first compound 0.0316 µM
[14] = second compound 0.316 µM, first compound 0.1 µM
[15] = second compound 0.316 µM, first compound 0.316 µM
[16] = second compound 0.316 µM, first compound 1 µM
[17] = second compound 0.316 µM, first compound 3.16 µM
[18] = second compound 0.316 µM, first compound 10 µM
[19] = second compound 1 µM, first compound 0.0316 µM
[20] = second compound 1 µM, first compound 0.1 µM
[21] = second compound 1 µM, first compound 0.316 µM
[22] = second compound 1 µM, first compound 1 µM
[23] = second compound 1 µM, first compound 3.16 µM
[24] = second compound 1 µM, first compound 10 µM
[25] = second compound 3.16 µM, first compound 0.0316 µM
[26] = second compound 3.16 µM, first compound 0.1 µM
[27] = second compound 3.16 µM, first compound 0.316 µM
[28] = second compound 3.16 µM, first compound 1 µM
[29] = second compound 3.16 µM, first compound 3.16 µM
[30] = second compound 3.16 µM, first compound 10 µM
[31] = second compound 10 µM, first compound 0.0316 µM
[32] = second compound 10 µM, first compound 0.1 µM
[33] = second compound 10 µM, first compound 0.316 µM
[34] = second compound 10 µM, first compound 1 µM
[35] = second compound 10 µM, first compound 3.16 µM
[36] = second compound 10 µM, first compound 10 µM
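Also: viability read 7 days after compound addition.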

IC50 (second compound 0.0316 µM): 7.07 µM | IC50 (second compound 0.1 µM): 7.1 µM | IC50 (second compound 0.316 µM): 7.17 µM | IC50 (second compound 1 µM): 6.84 µM | IC50 (second compound 3.16 µM): 7.09 µM | IC50 (second compound 10 µM): 6.79 µM
SMILES: CC1(C)CCC(CN2CCN(c3ccc(C(=O)NS(=O)(=O)c4ccc(NCC5CCOCC5)c([N+](=O)[O-])c4)c(Oc4cnc5[nH]ccc5c4)c3)CC2)=C(c2ccc(Cl)cc2)C1 + CC(Nc1ncnc2nc[nH]c12)c1cc2cccc(Cl)c2c(=O)n1-c1ccccc1
viability, T/C [1]: 105% | viability, T/C [2]: 105% | viability, T/C [3]: 102% | viability, T/C [4]: 110% | viability, T/C [5]: 99.3% | viability, T/C [6]: 28.5% | viability, T/C [7]: 113% | viability, T/C [8]: 112% | viability, T/C [9]: 105% | viability, T/C [10]: 106% | viability, T/C [11]: 107% | viability, T/C [12]: 25.9% | viability, T/C [13]: 103% | viability, T/C [14]: 98.2% | viability, T/C [15]: 106% | viability, T/C [16]: 110% | viability, T/C [17]: 101% | viability, T/C [18]: 29.1% | viability, T/C [19]: 105% | viability, T/C [20]: 101% | viability, T/C [21]: 95.3% | viability, T/C [22]: 103% | viability, T/C [23]: 92.4% | viability, T/C [24]: 28.9% | viability, T/C [25]: 101% | viability, T/C [26]: 107% | viability, T/C [27]: 97.4% | viability, T/C [28]: 107% | viability, T/C [29]: 99.3% | viability, T/C [30]: 29% | viability, T/C [31]: 92.9% | viability, T/C [32]: 87.7% | viability, T/C [33]: 98.4% | viability, T/C [34]: 97.3% | viability, T/C [35]: 92.6% | viability, T/C [36]: 28.4%

IC50 (second compound 0.0316 µM): 6.07 µM | IC50 (second compound 0.1 µM): 6.04 µM | IC50 (second compound 0.316 µM): 6.07 µM | IC50 (second compound 1 µM): 5.96 µM | IC50 (second compound 3.16 µM): 5.92 µM | IC50 (second compound 10 µM): 5.69 µM
SMILES: CCCS(=O)(=O)Nc1ccc(F)c(C(=O)c2c[nH]c3ncc(-c4ccc(Cl)cc4)cc23)c1F + CC(Nc1ncnc2nc[nH]c12)c1cc2cccc(Cl)c2c(=O)n1-c1ccccc1
viability, T/C [1]: 102% | viability, T/C [2]: 101% | viability, T/C [3]: 104% | viability, T/C [4]: 125% | viability, T/C [5]: 112% | viability, T/C [6]: 4.93% | viability, T/C [7]: 101% | viability, T/C [8]: 111% | viability, T/C [9]: 103% | viability, T/C [10]: 107% | viability, T/C [11]: 119% | viability, T/C [12]: 4.62% | viability, T/C [13]: 107% | viability, T/C [14]: 103% | viability, T/C [15]: 109% | viability, T/C [16]: 122% | viability, T/C [17]: 110% | viability, T/C [18]: 3.9% | viability, T/C [19]: 102% | viability, T/C [20]: 93.9% | viability, T/C [21]: 113% | viability, T/C [22]: 110% | viability, T/C [23]: 109% | viability, T/C [24]: 4.52% | viability, T/C [25]: 99.2% | viability, T/C [26]: 99.9% | viability, T/C [27]: 102% | viability, T/C [28]: 116% | viability, T/C [29]: 104% | viability, T/C [30]: 5.3% | viability, T/C [31]: 92.3% | viability, T/C [32]: 95.2% | viability, T/C [33]: 99.6% | viability, T/C [34]: 108% | viability, T/C [35]: 97.7% | viability, T/C [36]: 4.17%

IC50 (second compound 0.0316 µM): > 10 µM | IC50 (second compound 0.1 µM): > 10 µM | IC50 (second compound 0.316 µM): > 10 µM | IC50 (second compound 1 µM): > 10 µM | IC50 (second compound 3.16 µM): > 10 µM | IC50 (second compound 10 µM): > 10 µM
SMILES: C[C@@H](NC(=O)c1ncnc(N)c1Cl)c1ncc(C(=O)Nc2cc(C(F)(F)F)c(Cl)cn2)s1 + CC(Nc1ncnc2nc[nH]c12)c1cc2cccc(Cl)c2c(=O)n1-c1ccccc1
viability, T/C [1]: 107% | viability, T/C [2]: 117% | viability, T/C [3]: 117% | viability, T/C [4]: 104% | viability, T/C [5]: 92.7% | viability, T/C [6]: 74.5% | viability, T/C [7]: 121% | viability, T/C [8]: 107% | viability, T/C [9]: 110% | viability, T/C [10]: 111% | viability, T/C [11]: 98.9% | viability, T/C [12]: 78.1% | viability, T/C [13]: 113% | viability, T/C [14]: 116% | viability, T/C [15]: 104% | viability, T/C [16]: 110% | viability, T/C [17]: 103% | viability, T/C [18]: 75.1% | viability, T/C [19]: 115% | viability, T/C [20]: 114% | viability, T/C [21]: 105% | viability, T/C [22]: 110% | viability, T/C [23]: 107% | viability, T/C [24]: 69.4% | viability, T/C [25]: 98.5% | viability, T/C [26]: 108% | viability, T/C [27]: 103% | viability, T/C [28]: 95.8% | viability, T/C [29]: 98.2% | viability, T/C [30]: 66.5% | viability, T/C [31]: 96.4% | viability, T/C [32]: 107% | viability, T/C [33]: 99.8% | viability, T/C [34]: 106% | viability, T/C [35]: 86% | viability, T/C [36]: 53.2%
